Experimental data from patent publication US20260049101A1, “TOPICAL TREATMENT OF SKIN CANCER USING OLIGOPEPTIDES” (BACOBA AG, priority 2022, published 2026).
“Also recorded” adds a separate entry of the source. Square brackets hold non-standard residues; d marks the D form. Peptide text beside a SMILES is read from it. * marks the point of attachment. NH(1-CH2NMe2-cBu) = CN(C)CC1(N*)CCC1; Benzoyl(4-F) = O=C(c1ccc(F)cc1)*; hCha = N[C@@H](CCC1CCCCC1)C(=O)O; Aib = CC(C)(N)C(=O)O; βAla = NCCC(=O)O

Experiments:
[1] = test system: patient derived Basal Cell Carcinoma (BCC); assay type: cell-based, human; conditions: 500 nM, 4 days, vs DMSO
[2] = test system: B16F10 xenografts in C57BL/6 mice; experiment: In vivo efficacy test, dermal treatment of intradermal B16-F10 tumours (tumour volume); set-up: species or system mouse; conditions: for T/C [%] (ratio of mean tumour volume of treated over control) / RTV Mean / RTV Median / Tumour Volume [cm^3] Mean / Tumour Volume [cm^3] Median: 20 μl of 5% 6027 dermally daily from day 1; for RTV Mean / RTV Median / Tumour Volume [cm^3] Mean / Tumour Volume [cm^3] Median: n=8
Experimental: (§1) In vivo efficacy test methodology. C57Bl/6 mice (Janvier Labs); females; 6-8 weeks old at beginning of the treatment. The tumour was induced through intradermal inoculation of 1×10^5 cells per mouse intradermally in the skin of the neck. A total of 24 mice were used (n=8 for vehicle, n=8 for 5% 6027, n=8 for leucinostatin A 0.2%). Test item was applied starting on day 1 after inoculation of the tumour cells. The test items of 20 μl of 5% 6027 and of 0.2% Leucinostatin A were applied dermally with a pipette once a day every day for up to 21 days to the intact skin area of about 1 cm^2 on the site were the B16-F10 cells had been injected. If ulceration occurred then the animal was removed from the test and sacrificed.
The read out was tumour volume measured three times a week expressed as tumour volume (in cm^3). Additionally, tumour samples were taken for histological analysis (Tumour FFPE) (2 mice per group).

[3] = test system: B16-F10 mouse melanoma cells; experiment: In vitro cell viability assay on B16-F10; assay type: cell-based; conditions: B16-F10, 72 hours, resazurin
Experimental: In vitro cell viability assay methodology.
Half maximal inhibitory concentration (IC50) of the compounds was determined by seeding of cell culture into 96 well-plates (Cat #353072, Corning) and treated the day after with dose-escalating concentrations of the compounds (from 0.001 μM to 10 μM in RPMI-1640 complete) for 72 hours. 1000 cells were seeded per well. […] Triplicates were seeded for each condition. […] Vehicle treated wells were set to 100% viability.

[4] = Dermal tolerability in the in vivo efficacy test; set-up: species or system mouse; conditions: 20 μl of 5% 6027 once a day
Experimental: as §1

[5] = test system: patient derived high grade cutaneous squamous cell carcinoma (cSCC); experiment: Ex vivo patient-derived high grade cSCC (Example 11), Ki67; assay type: cell-based, human; conditions: 500 nM, 4 days, vs DMSO; p<0.003
Text: Tumour material was harvested from high grade cutaneous squamous cell carcinoma (cSCC) from a patient's head.

## CC(C)C[C@H](NC(=O)[C@H](CCC1CCCCC1)NC(=O)[C@@H]1CCCN1C(=O)c1ccc(F)cc1)C(=O)NC(C)(C)C(=O)N[C@@H](CC(C)C)C(=O)N[C@@H](CC(C)C)C(=O)NC(C)(C)C(=O)NC(C)(C)C(=O)NCCC(=O)NC1(CN(C)C)CCC1 [Compound 6027, (2S)-2-[(2S)-4-cyclohexyl-2-{[(2S)-1-(4-fluorobenzoyl)pyrrolidin-2-yl]formamido}butanamido]-N-(1-{[(1S)-1-{[(1S)-1-({1-[(1-{[2-({1-[(dimethylamino)methyl]cyclobutyl}carbamoyl)ethyl]carbamoyl}-1-methylethyl)carbamoyl]-1-methylethyl}carbamoyl)-3-methylbutyl]carbamoyl}-3-methylbutyl]carbamoyl}-1-methylethyl)-4-methylpentanamide] ({Benzoyl(4-F)}-P[hCha]L[Aib]LL[Aib][Aib][βAla]-{NH(1-CH2NMe2-cBu)})
[1]
  apoptotic cells (TUNEL positive cells): Significant increase
  cell proliferation (Ki67): significantly reduced
[2]; day 1
  T/C [%] (ratio of mean tumour volume of treated over control): 100%
  RTV Mean: 1.0
  RTV Median: 1.0
  Tumour Volume [cm^3] Mean: 0.001 cm^3
  Tumour Volume [cm^3] Median: 0.001 cm^3
[2]; day 2
  T/C [%] (ratio of mean tumour volume of treated over control): 100%
  RTV Mean: 1.0
  RTV Median: 1.0
  Tumour Volume [cm^3] Mean: 0.001 cm^3
  Tumour Volume [cm^3] Median: 0.001 cm^3
[2]; day 4
  T/C [%] (ratio of mean tumour volume of treated over control): 100%
  RTV Mean: 1.0
  RTV Median: 1.0
  Tumour Volume [cm^3] Mean: 0.001 cm^3
  Tumour Volume [cm^3] Median: 0.001 cm^3
[2]; day 7
  T/C [%] (ratio of mean tumour volume of treated over control): 71%
  RTV Mean: 8.8
  RTV Median: 9.0
  Tumour Volume [cm^3] Mean: 0.009 cm^3
  Tumour Volume [cm^3] Median: 0.009 cm^3
[2]; day 9
  T/C [%] (ratio of mean tumour volume of treated over control): 64%
  RTV Mean: 28.4
  RTV Median: 25.5
  Tumour Volume [cm^3] Mean: 0.028 cm^3
  Tumour Volume [cm^3] Median: 0.026 cm^3
[2]; day 10
  T/C [%] (ratio of mean tumour volume of treated over control): 35%
  RTV Mean: 29.9
  RTV Median: 25.5
  Tumour Volume [cm^3] Mean: 0.030 cm^3
  Tumour Volume [cm^3] Median: 0.026 cm^3
[2]; day 11
  T/C [%] (ratio of mean tumour volume of treated over control): 33%
  RTV Mean: 44.6
  RTV Median: 31.0
  Tumour Volume [cm^3] Mean: 0.045 cm^3
  Tumour Volume [cm^3] Median: 0.031 cm^3
[2]; topical treatment with 5% 6027 vs vehicle
  reduction of tumour growth: significant reduction of tumour growth
[3]
  IC50: 208 nM
[4]
  skin irritations or other side effects: No skin irritations or other side effects were observed; also recorded: did not show skin irritations
  tolerability of dermal treatment: well tolerated
[5]
  cell proliferation (Ki67): significantly reduced
